Results taken from patent publication US6019970A, “Treatment of iodine deficiency diseases” (priority 1997, dated 2000).
“Also recorded” adds a separate entry of the source. Read-outs that look alike come from different tables or passages of the source.

How the values were obtained:
dysplastic mastodynia = conditions: women with dysplastic mastodynia; cited from earlier work
[1] = tested on: breast tissue from a female rat on an iodine deficient diet; assay: Iodine replacement therapy in iodine deficient rats, morphology of breast tissue; type: in vivo
Text: Studies on rats have included iodine replacement therapy in animals made iodine deficient by a Remington iodine-free diet.
The first iodine product used in the reversal experiment was sodium iodide.
FIG. 1 is a photomicrograph of the breast tissue of a human.
Biological Trace Element Research, Volume 5, 1983, 399-412. The material disclosed in these articles is incorporated herein by reference.
This deficiency can be obtained either through the use of an iodine deficient diet and/or through perchlorate treatment.

fibrocystic disease = conditions: human, in vivo; cited from earlier work
endometriosis = assay: Example 6: Treatment of endometriosis with iodine; type: in vivo, human
Text: An effective dose of elemental iodinte (I2) to cause such a subsidence of nodularity is about 1 to 20 milligrams per day. A daily dosage of elemental iodine for the treatment of endometriosis of about 3 milligrams to about 6 milligrams is also useful. The daily dosage can be administered in an aqueous solution containing about 0.30 milligrams of elemental iodine per millilitre of solution.
Two patients, both with a diagnosis of endometriosis and both treated with birth control pills previously with little result, were treated with diatomic iodine for 10 and 18 months, respectively.

breast cancer = assay: Example 5: Incidence of breast cancer in women treated with elemental iodine; type: in vivo, human (women); conditions: comparison with published series
Text: The incidence of breast cancer in women treated with elemental iodine was compared with other published results, namely the results as published by the Ontario Cancer Research, and results published by Spratt.

breast estrogen receptor = assay: Breast estrogen receptor activity and iodine; design: species or system rat
Text: The biochemical pathway seems to be an intracellular attraction by iodine for estrogen receptors. […] Thus, cell metabolism is altered when there is "inadequate" iodine present.
A characteristic of breast cancer is the change in response to estrogen and estrogen receptor variability.

[2] = tested on: DMBA-induced mammary tumors; assay: Dimethylbenzanthracene studies: mean tumor volume in DMBA treated rats; type: in vivo, Sprague-Dawley virgin female rats; conditions: for Mean Tumor Volume, Exp. / Mean Tumor Volume, Week 10 / Mean Tumor Volume, Week 12 / Mean Tumor Volume, Week 14 / Mean Tumor Volume, Week 16 / Mean Tumor Volume, Week 18 / Mean Tumor Volume, Week 20 / Mean Tumor Volume, Week 22: DMBA treated rats, in mm³ (unit assumed)
Procedure: After adequate orientation of 48 hours, 80 Sprague-Dawley virgin female rats (A.A.I., PA) of 100-124 grams and approximately 37 days old, were divided randomly into eight groups each containing 10 rats. The animals were identified according to their phase, group, and rat numbers. The eight groups were labelled as Groups, IA1, IA2, IB1, IB2, IIA1, IIA2, IIB1, and IIB2. Each rat was weighed and marked for identification. Ear identification were as follows:
Group I was initially fed a normal diet and provided with double distilled drinking water (Ionics and IWT). Group II was initially fed a Remington iodine-deficient diet (Teklad, WI) during which they received double distilled drinking water.
At the end of fourteen days, and at 50-56 days old, groups I and II were divided into groups A and B. Groups IA and IIA were treated with 15 mg 7,12 Dimethylbenzanthracene (Eastman Kodak, NY) dissolved in 1 ml sesame oil by gavage. Groups IB and IIB were given a sham feeding of 1 ml of sesame oil at this time also. Only 10 rats a day were given this treatment. For the first twelve hours after treatment, the rats were housed in the fume hood and then taken to the Animal House where they were placed in the same room as groups IB and IIB. The rats in groups IA and IIA continued to be fed a normal diet and iodine-deficient diet, respectively. Groups IB and IIB also continued to receive their respective diets.
The following phases received iodine replacement therapy at these times:
Phase 1--at time of initial feeding of Remington diet
Phase 2--at time of DMBA pulse
Phase 3--at 10 days after DMBA treatment
Groups IA1, IB1, IIA1, and IIB1 received 2.67 ml/1000 ml dilution of a 0.3 mg/ml "mother" iodine concentrate for the rest of the experiment. The technique for making the iodine solution was as follows:
4) A second container was used to measure 2.67 ml of concentrate to 1000 ml DD H2 O. This dilution was then used as drinking water for the animals.
This daily dosage corresponds to the rats receiving 0.07-0.09 mg per kilogram body weight. The other groups continued to receive double distilled drinking water. Thus, the groups were arranged in the following order:
Palpations of the breasts were performed twice a week for the first 30 days after pulse DMBA was administered. The masses, if any, were drawn, measured by caliper, described as to consistency and freedom of motion, and all observations were recorded. After 30 days, the above observations were taken (including framing of tumor if larger than 5 mm) every 2 days and recorded.
Group 1, which was initially fed a normal diet, and Group 2 which was initially fed a Remington iodine deficient diet. Within the two groups are four subgroups, phases 1, 2 and 3, and a control. Phase 1 received iodine replacement therapy at the time of the initial feeding of either the Remington diet or the normal diet. Phase 2 received iodine replacement therapy at the time of DMBA treatment. Phase 3 received iodine replacement therapy 10 days after DMBA treatment.
*Volumes were calculated using the formula 4/3 ((L + W) .div. 2)
All measurements were recorded in centimeters designating the greatest

[3] = tested on: DMBA-induced mammary gland neoplasia; assay: Example 4: Iodine treatment of induced breast tumors in rats; type: in vivo, rat
Text: DMBA, a carcinogen, causes mammary gland neoplasia in rats. If these tumors contain breast peroxidase, tney respond to iodine and estrogen treatment. However, as the tumors become less responsive to iodine (hormone independent), breast peroxidase is found to be lacking.

[4] = tested on: breast tissue from a female rat on an iodine deficient diet; conditions: Remington iodine-free diet; iodide salts in food, normal and excessive levels; cited from earlier work
[5] = tested on: breast tissue from a female rat on an iodine deficient diet; assay: Carcinogen added to iodine deficient rat model (FIG. 6); type: in vivo; conditions: iodine deficient diet (FIG. 6)
Text: This finding is supportive of the inventors' contention that fibrocystic disease enhances the risk of breast cancer causing sensitization of the breast tissue to various stimuli, including carcinogens. This sensitization process may explain the increased incidence of breast cancer in women in areas of deficient iodine intake, reported by Moosa et al. in "Thyroid Status and Breast Cancer", Royal College of Surgeons, England, 53, 1975.

[6] = Group I, Normal Diet, Iodine Phase I
[7] = Group I, Normal Diet, Iodine Phase II
[8] = Group I, Normal Diet, Iodine Phase III
[9] = Group II, ID (iodine-deficient) Diet, Iodine Phase I
[10] = Group II, ID (iodine-deficient) Diet, Iodine Phase II
[11] = Group II, ID (iodine-deficient) Diet, Iodine Phase III

In the case of `[I-].[K+]` [potassium iodide, reference compound], the improvement rate (dysplastic mastodynia) is listed as 71% and the “reversal of pathological changes / tissue morphology of rat breast after iodine replacement” value [1] is listed as “only minimal success”.
In the case of `C#C[C@]1(O)CC[C@H]2[C@@H]3CCC4=Cc5oncc5C[C@]4(C)[C@H]3CC[C@@]21C` [danazol], the “side effects in treatment of mammary dysplasia” value (fibrocystic disease) is given as “massive side effects”.
In the case of `II` [elemental iodine, diatomic iodine], the “nodularity of pelvic peritoneum” value (endometriosis; about 1 to 20 milligrams per day) is reported as “subsidence of the nodularity of the patient's pelvic peritoneum”, the “overall response to iodine treatment, series of patients” value (endometriosis; no other medication during trial therapy) is reported as “This series of patients has responded” and the “effect of stopping medication” value (endometriosis; third patient) is reported as “asymptomatic for two cycles, and then their pain returned”. For the same molecule, the “pelvic pain and nodularity on treatment” value (endometriosis; third patient) was “within two cycles, with complete relief of pelvic pain and improvement in the pelvic nodularity on rectal examination”, the “cyclic lower abdominal pain” value (endometriosis; three patients treated for fibrocystic breast dysplasia) was “coincident dramatic decrease in their cyclic lower abdominal pain” and the “effect of restarting medication” value (endometriosis; two patients) was “The subjective symptoms and physical findings again improved within one cycle”. For the same molecule, the “effect of stopping medication” value (endometriosis; two patients) was “within one cycle, they had severe pain again, with increasing nodularity of the pelvic peritoneum on rectal examination”, the pain on treatment (endometriosis; two patients, 10 and 18 months) was “complete amelioration of their pain within one cycle of starting the medication” and the “incidence of breast cancer versus women not so treated” value (breast cancer) was “less than the incidence of breast cancer in women who had not been so treated”. The “breast estrogen receptor activities after iodine replacement” value (breast estrogen receptor; iodine deficiency) was “disappears upon iodine replacement”, the “role in estrogen receptor function” value (breast estrogen receptor; rats) was “necessary for normal estrogen receptor function in rats” and the “Mean Tumor Volume, Exp.” value [2, 6] was 320.524. The “Mean Tumor Volume, Week 10” value [2, 6] was 15.191, the “Mean Tumor Volume, Week 12” value [2, 6] was 53.565 and the “Mean Tumor Volume, Week 14” value [2, 6] was 67.739. The “Mean Tumor Volume, Week 16” value [2, 6] was 97.979, the “Mean Tumor Volume, Week 18” value [2, 6] was 136.405 and the “Mean Tumor Volume, Week 20” value [2, 6] was 155.904. The “Mean Tumor Volume, Week 22” value [2, 6] was 214.962, the “Mean Tumor Volume, Exp.” value [2, 7] was 534.001 and the “Mean Tumor Volume, Week 10” value [2, 7] was 7.603. The “Mean Tumor Volume, Week 12” value [2, 7] was 57.853, the “Mean Tumor Volume, Week 14” value [2, 7] was 106.887 and the “Mean Tumor Volume, Week 16” value [2, 7] was 140.751. For the same molecule, the “Mean Tumor Volume, Week 18” value [2, 7] was 216.033, the “Mean Tumor Volume, Week 20” value [2, 7] was 247.025 and the “Mean Tumor Volume, Week 22” value [2, 7] was 320.468. For the same molecule, the “Mean Tumor Volume, Exp.” value [2, 8] was 392.61, the “Mean Tumor Volume, Week 10” value [2, 8] was 6.686 and the “Mean Tumor Volume, Week 12” value [2, 8] was 24.079. The “Mean Tumor Volume, Week 14” value [2, 8] was 75.421, the “Mean Tumor Volume, Week 16” value [2, 8] was 90.319 and the “Mean Tumor Volume, Week 18” value [2, 8] was 127.529. For the same molecule, the “Mean Tumor Volume, Week 20” value [2, 8] was 184.717, the “Mean Tumor Volume, Week 22” value [2, 8] was 319.229 and the “Mean Tumor Volume, Exp.” value [2, 9] was 337.516. The “Mean Tumor Volume, Week 10” value [2, 9] was 4.048, the “Mean Tumor Volume, Week 12” value [2, 9] was 23.367 and the “Mean Tumor Volume, Week 14” value [2, 9] was 65.244. For the same molecule, the “Mean Tumor Volume, Week 16” value [2, 9] was 119.156, the “Mean Tumor Volume, Week 18” value [2, 9] was 155.189 and the “Mean Tumor Volume, Week 20” value [2, 9] was 174.49. For the same molecule, the “Mean Tumor Volume, Week 22” value [2, 9] was 238.883, the “Mean Tumor Volume, Exp.” value [2, 10] was 613.044 and the “Mean Tumor Volume, Week 10” value [2, 10] was 0.216. For the same molecule, the “Mean Tumor Volume, Week 12” value [2, 10] was 54.934, the “Mean Tumor Volume, Week 14” value [2, 10] was 111.962 and the “Mean Tumor Volume, Week 16” value [2, 10] was 168.475. For the same molecule, the “Mean Tumor Volume, Week 18” value [2, 10] was 269.008, the “Mean Tumor Volume, Week 20” value [2, 10] was 401.774 and the “Mean Tumor Volume, Week 22” value [2, 10] was 519.122. For the same molecule, the “Mean Tumor Volume, Exp.” value [2, 11] was 500.435, the “Mean Tumor Volume, Week 10” value [2, 11] was 5.816 and the “Mean Tumor Volume, Week 12” value [2, 11] was 36.68. For the same molecule, the “Mean Tumor Volume, Week 14” value [2, 11] was 81.81, the “Mean Tumor Volume, Week 16” value [2, 11] was 177.888 and the “Mean Tumor Volume, Week 18” value [2, 11] was 203.824. The “Mean Tumor Volume, Week 20” value [2, 11] was 356.807, the “Mean Tumor Volume, Week 22” value [2, 11] was 393.328 and the “mean tumor volume, in words” value ([2]; pretreatment before DMBA, versus nontreated controls) was “reduction of mean tumor volume as compared to the nontreated controls; also recorded: reduced the mean tumor volume in the DMBA treated rats”. The tumor response ([3]; about 0.5 mg per 100 gm body weight, orally or intraperitoneally, preliminary) was “more response to both diatomic iodine and estrogen”.
In the case of `[I-].[Na+]` [sodium iodide, reference compound], the “breast dysplasia after iodine replacement” value [4] is listed as “the breast dysplasia appeared to abate with a partial subsidence of epithelial hyperplasia and a loss of cystic spaces but with a continuation of the fibrosis of the syndrome”, the “reversal of pathological changes / tissue morphology of rat breast after iodine replacement” value [1] is listed as “reversal of the pathological changes to a degree with the partial subsidence of cyst formation, epithelial hyperplasia and fibrosis. The interacinar fibrosis remained” and the “reversal of pathological changes / tissue morphology of rat breast after iodine replacement” value ([1]; listed as sodium iodide (NaI)) is listed as “only minimal success”. For the same molecule, the “reversal of pathological changes / tissue morphology of rat breast after iodine replacement” value ([1]; listed as sodium iodine) was “The epithelial hyperplasia regressed and the cystic spaces disappeared, but the fibrous tissue remained”.
In the case of `[O-][Cl+3]([O-])([O-])O` [perchlorate, reference compound], the “effect on tumorigenesis and iodide therapy” value ([3]; peroxidase-blocking agent) is reported as “increases the tumorigenesis and the effectiveness of iodide therapy”.
With `Cc1c2ccccc2c(C)c2c1ccc1ccccc12` [dimethyl benzanthracene, 7,12 Dimethylbenzanthracene] the “progression of fibrocystic dysplasia” value [5] was “progression from the benign state of fibrocystic dysplasia to overt malignancy”.
